The text below walks through data of patent US20260001928A1 (CORTERIA PHARMACEUTICALS, priority 2022, published 2026).

Data set [1] addresses T1, human CRF2a receptor (Homo sapiens, UniProt Q13324).
T1 construct: expressed in transfected cells; host or cells: TeloHEAC cells
T1 sequence (Q13324 1-411): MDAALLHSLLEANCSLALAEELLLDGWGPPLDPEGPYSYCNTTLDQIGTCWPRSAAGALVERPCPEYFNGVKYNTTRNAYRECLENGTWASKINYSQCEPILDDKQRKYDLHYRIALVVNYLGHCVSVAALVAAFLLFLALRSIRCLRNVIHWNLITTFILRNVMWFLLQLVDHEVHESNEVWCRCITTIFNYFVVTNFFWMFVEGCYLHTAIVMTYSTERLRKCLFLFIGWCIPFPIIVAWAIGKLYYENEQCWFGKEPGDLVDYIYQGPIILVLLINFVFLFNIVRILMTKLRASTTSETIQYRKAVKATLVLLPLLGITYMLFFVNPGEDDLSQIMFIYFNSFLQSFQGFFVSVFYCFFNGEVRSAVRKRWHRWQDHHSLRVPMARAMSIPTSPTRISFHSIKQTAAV
The data set is described as follows: Activity at human CRF2a receptor, cAMP functional assay in TeloHEAC cells. The settings on record: TeloHEAC cells stably expressing human CRF2a receptor, relative to urocortin 2 (100 nM = 100%). Type of data set: cell-based. Put shortly:
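TeloHEAC cells stably expressing human CRF2a (10000 cells/well) were treated with 16-point 1:2 compound dilutions in HBSS/20 mM HEPES with IBMX for 30 min at 37° C. cAMP was read by HTRF (665/620 nm ratio). EC50 was the concentration giving 50% activation, with 100 nM urocortin 2 set as 100%.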

Data set [2] has as its target T2, CFR1R receptor (Homo sapiens, UniProt P34998).
T2 construct: host or cells: CHO-K1 (clone 2)
T2 sequence (P34998 24-415): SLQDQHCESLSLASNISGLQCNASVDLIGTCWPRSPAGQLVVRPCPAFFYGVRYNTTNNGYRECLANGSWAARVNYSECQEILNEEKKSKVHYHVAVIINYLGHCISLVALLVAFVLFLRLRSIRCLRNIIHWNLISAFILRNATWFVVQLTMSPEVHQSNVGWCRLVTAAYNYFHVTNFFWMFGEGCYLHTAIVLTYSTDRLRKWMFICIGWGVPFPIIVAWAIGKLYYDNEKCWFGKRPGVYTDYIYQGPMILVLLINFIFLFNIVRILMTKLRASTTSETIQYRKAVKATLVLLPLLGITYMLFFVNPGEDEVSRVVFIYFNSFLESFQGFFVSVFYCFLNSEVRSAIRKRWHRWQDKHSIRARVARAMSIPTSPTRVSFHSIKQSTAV
The data set is described as follows: Activity at anti-target CFR1R receptor, cAMP assay in CRF1R-overexpression CHO-K1 cells. The format is cell-based. The settings on record: 100% = Sauvagine at 100 nM; for EC50: cAMP. Put shortly:
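Run as for the TeloHAEC line, except the full-activation control well received Sauvagine (100 nM) and final density was 4000 cells/well. Cells from clone 2 came from frozen aliquots of near-confluent cultures.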
A general note: Changes in cAMP serve as a functional read-out for many G protein-coupled receptors.

A short description of data set [3]: Chemical stability in buffer (pH 7.4 / pH 4.5), % purity loss. The format is physicochemical. The settings on record: 40° C. vs 5° C., 14 or 28 days; for Buffer stability pH 4.5 % purity loss: 100 mM acetate buffer pH 4.5; for Buffer stability pH 7.4 % purity loss: 100 mM phosphate buffer pH 7.4. Here is the method:
Solubility and chemical stability were studied in 100 mM phosphate buffer (pH 7.4) and 100 mM acetate buffer (pH 4.5). Test compound powders were dissolved in both buffers at a target concentration of 10 mg/mL and incubated for 1 hour at room temperature. After centrifugation at 2500 rcf for 15 minutes, 10 μL of supernatant was diluted with 190 μL of the incubation buffer and analyzed by LC-UV (Acquity UPLC-DAD, Waters). Solubility was calculated by comparing the peak area of the test compound in the buffer sample with the peak area of the same compound dissolved at 0.5 mg/mL in water:acetonitrile 1:1, 0.1% formic acid.
From the centrifuged supernatant, two additional 80 μL aliquots were collected and diluted with 160 μL of incubation buffer. One aliquot was stored at 5° C., while the other was stored at 40° C. After 14 or 28 days, the samples were analyzed by LC-UV. Chemical stability was calculated as % loss using the following equations: […]

Structures are written as SMILES. *1 amine or outer side, *2 acyl side, *3 side chain or, on linkers, in order; H or OH if unused. Where a SMILES comes first, the peptide text is derived from it. Side-chain parts run from the residue outwards. [ ]: non-standard residue; d: D form. The star is where a group is joined. C20 diacid = O=C(O)CCCCCCCCCCCCCCCCCCC(=O)*; C18 diacid = O=C(O)CCCCCCCCCCCCCCCCC(=O)*; γGlu = O=C(O)[C@H](CCC(=O)[*:2])N[*:1]; NMeI = CC[C@H](C)[C@H](NC)C(=O)O; Abu = CC[C@H](N)C(=O)O; Pentanoyl = CCCCC(=O)*; AEEA = NCCOCCOCC(=O)O; Aib = CC(C)(N)C(=O)O

By EC50 is commonly meant the concentration that produces a half-maximal response. In data set [1], `CCCCC(=O)N[C@H](C(=O)N[C@@H](CC(C)C)C(=O)N[C@@H](CO)C(=O)N[C@@H](CC(C)C)C(=O)N[C@@H](CC(=O)O)C(=O)N[C@H](C(=O)N1CCC[C@H]1C(=O)N[C@H](C(=O)N[C@@H](CCCCN)C(=O)N[C@@H](CC(C)C)C(=O)N[C@@H](CCCCNC(=O)COCCOCCNC(=O)COCCOCCNC(=O)CC[C@H](NC(=O)CCCCCCCCCCCCCCCCC(=O)O)C(=O)O)C(=O)N[C@@H](CCCCN)C(=O)N[C@H](C(=O)N[C@@H](CC(C)C)C(=O)N[C@@H](CC(C)C)C(=O)N[C@@H](CCC(=O)O)C(=O)N[C@@H](CCC(N)=O)C(=O)N[C@@H](CCC(=O)O)C(=O)N[C@@H](CCCCN)C(=O)N[C@@H](CCC(N)=O)C(=O)N[C@@H](CCCCN)C(=O)N[C@@H](CCCCN)C(=O)N[C@@H](CCC(N)=O)C(=O)N[C@@H](CCCNC(=N)N)C(=O)N[C@@H](CCC(=O)O)C(=O)N[C@@H](CCC(N)=O)C(=O)N[C@@H](C)C(=O)N[C@@H](CCC(=O)O)C(=O)N[C@H](C(=O)N[C@@H](CC(N)=O)C(=O)N[C@@H](CCCCN)C(=O)N[C@@H](CCC(N)=O)C(=O)N[C@H](C(=O)N[C@@H](CC(C)C)C(=O)N[C@@H](C)C(=O)N[C@@H](CCC(N)=O)C(=O)N[C@H](C(N)=O)C(C)C)[C@@H](C)CC)[C@@H](C)O)[C@@H](C)CC)[C@@H](C)CC)C(C)C)C(C)C` [compound 96] (Pentanoyl-VLSLDVPIKLK([AEEA-AEEA-γGlu-C18 diacid])KILLEQEKQKKQREQAETNKQILAQV-NH2) showed an EC50 of 0.49 nM. Besides, in data set [2], the “Emax (% I)” value is on record as 4 % I and the EC50 was above 250 nM. Moreover, the “Buffer stability pH 4.5 % purity loss” value in data set [3] is listed as “nd/0 ^ %”.

Regarding `CC[C@H](NC(=O)[C@H](CC(N)=O)NC(=O)[C@@H](NC(=O)[C@H](CCC(=O)O)NC(=O)[C@H](C)NC(=O)[C@H](CCC(N)=O)NC(=O)[C@H](CCC(=O)O)NC(=O)[C@H](CCCNC(=N)N)NC(=O)[C@H](CCC(N)=O)NC(=O)[C@H](CCCCN)NC(=O)[C@H](CCCCN)NC(=O)[C@H](CCC(N)=O)NC(=O)[C@H](CCCCN)NC(=O)[C@H](CCC(=O)O)NC(=O)[C@H](CCC(N)=O)NC(=O)[C@H](CCC(=O)O)NC(=O)[C@H](CC(C)C)NC(=O)[C@H](CC(C)C)NC(=O)[C@@H](NC(=O)[C@H](CCCCN)NC(=O)[C@H](CCCCNC(=O)COCCOCCNC(=O)COCCOCCNC(=O)CC[C@H](NC(=O)CCCCCCCCCCCCCCCCC(=O)O)C(=O)O)NC(=O)[C@H](CC(C)C)NC(=O)[C@H](CCCCN)NC(=O)[C@@H](NC(=O)[C@@H]1CCCN1C(=O)[C@H](NC(=O)[C@H](CC(=O)O)NC(=O)[C@H](CC(C)C)NC(=O)[C@H](CO)NC(=O)[C@H](CC(C)C)NC(=O)[C@@H](NC(=O)[C@@H](NC(C)=O)[C@@H](C)CC)C(C)C)C(C)C)[C@@H](C)CC)[C@@H](C)CC)[C@@H](C)O)C(=O)N[C@@H](CCC(N)=O)C(=O)N[C@H](C(=O)N[C@@H](CC(C)C)C(=O)N[C@@H](C)C(=O)N[C@@H](CCC(N)=O)C(=O)N[C@H](C(N)=O)C(C)C)[C@@H](C)CC` [compound 104] (Ac-IVLSLD[dV]PIKLK([AEEA-AEEA-γGlu-C18 diacid])KILLEQEKQKKQREQAETN[Abu]QILAQV-NH2), the EC50 in data set [1] was 0.47 nM. Also, in data set [2], the “Emax (% I)” value was 5 % I and the EC50 was above 250 nM. Further, in data set [3], the “Buffer stability pH 4.5 % purity loss” value is reported as 0/0 ^ % and the “Buffer stability pH 7.4 % purity loss” value is on record as 0/0 ^ %.

In turn, `CC[C@H](C)[C@H](NC)C(=O)N[C@H](C(=O)N[C@@H](CC(C)C)C(=O)N[C@@H](CO)C(=O)N[C@@H](CC(C)C)C(=O)N[C@@H](CC(=O)O)C(=O)N[C@@H](C(=O)N1CCC[C@H]1C(=O)N[C@H](C(=O)N[C@@H](CCCCN)C(=O)N[C@@H](CC(C)C)C(=O)N[C@@H](CCCCNC(=O)COCCOCCNC(=O)COCCOCCNC(=O)CC[C@H](NC(=O)CCCCCCCCCCCCCCCCCCC(=O)O)C(=O)O)C(=O)N[C@@H](CCCCN)C(=O)N[C@H](C(=O)N[C@@H](CC(C)C)C(=O)N[C@@H](CC(C)C)C(=O)N[C@@H](CCC(=O)O)C(=O)N[C@@H](CCC(N)=O)C(=O)N[C@@H](CCC(=O)O)C(=O)N[C@@H](CCCCN)C(=O)N[C@@H](CCC(N)=O)C(=O)N[C@@H](CCCCN)C(=O)NC(C)(C)C(=O)N[C@@H](CCC(N)=O)C(=O)N[C@@H](CCCNC(=N)N)C(=O)N[C@@H](CCC(=O)O)C(=O)N[C@@H](CCC(N)=O)C(=O)N[C@@H](C)C(=O)N[C@@H](CCC(=O)O)C(=O)N[C@H](C(=O)N[C@@H](CC(N)=O)C(=O)NC(C)(C)C(=O)N[C@@H](CCC(N)=O)C(=O)N[C@H](C(=O)N[C@@H](CC(C)C)C(=O)N[C@@H](C)C(=O)N[C@@H](CCC(N)=O)C(=O)N[C@H](C(N)=O)C(C)C)[C@@H](C)CC)[C@@H](C)O)[C@@H](C)CC)[C@@H](C)CC)C(C)C)C(C)C` [compound 239] (H-[NMeI]VLSLD[dV]PIKLK([AEEA-AEEA-γGlu-C20 diacid])KILLEQEKQK[Aib]QREQAETN[Aib]QILAQV-NH2) displayed a concentration giving a half-maximal response (EC50) in data set [1] of 0.11 nM. Also, in data set [2], the “Emax (% I)” value was 0 % I and the EC50 is above 250 nM. Further, in data set [3], the “Buffer stability pH 4.5 % purity loss” value turned out to be 2.6% and the “Buffer stability pH 7.4 % purity loss” value is recorded as 0.0%.
